In paper PMC4968608 (Cancer Science, 2016):
Marks after values point to notes of the source that are not given here.

Assays:
[1] = test system: Japanese patients with advanced solid tumors; assay: Dose-limiting toxicity and MTD determination, part 1; type: in vivo, human; settings: cycle 1; for DLT: stage IV, person
[2] = test system: Japanese patients with advanced solid tumors; assay: Treatment-related adverse events, part 1; type: in vivo, human; settings: for Any AE (treatment-related), All grades / Any AE (treatment-related), Grade 3/4 / Blood creatinine increased (treatment-related AE), All grades / Blood creatinine increased (treatment-related AE), Grade 3/4 / Diarrhea (treatment-related AE), All grades / Diarrhea (treatment-related AE), Grade 3/4 / Fatigue (treatment-related AE), All grades / Fatigue (treatment-related AE), Grade 3/4 / Lymphocytes decreased (treatment-related AE), All grades / Lymphocytes decreased (treatment-related AE), Grade 3/4 / Neutropenia (treatment-related), all grades / Neutropenia (treatment-related), grade 3/4 / Neutrophils decreased (treatment-related AE), All grades / Neutrophils decreased (treatment-related AE), Grade 3/4 / Platelets decreased (treatment-related AE), All grades / Platelets decreased (treatment-related AE), Grade 3/4 / WBCs decreased (treatment-related AE), All grades / WBCs decreased (treatment-related AE), Grade 3/4: part 1, n = 6
[3] = Plasma palbociclib pharmacokinetics, part 1; type: in vivo, human; settings: for AUC(0-t): geometric mean (geometric %CV); for half-life: t½, arithmetic mean ± SD
[4] = Plasma palbociclib concentrations with letrozole, part 2; type: in vivo, human; settings: palbociclib 125 mg + letrozole 2.5 mg once daily, multiple doses, part 2, day 15 of cycles 1 and 2
advanced solid tumors = assay: Antitumor activity; type: in vivo, human
[5] = test system: estrogen receptor‐positive (ER+) luminal breast cancer cell lines; settings: cited from earlier work
[6] = Trough plasma letrozole concentrations, part 2; type: in vivo, human
[7] = 100 mg, part 1, patient: breast cancer (first listed)

In the case of CC(=O)c1c(C)c2cnc(Nc3ccc(N4CCNCC4)cn3)nc2n(C2CCCC2)c1=O [Palbociclib], the “Patients with dose-limiting toxicity per dose level” value ([1]; 100 mg and 125 mg once daily, part 1, n = 6 each) is reported as “one patient per dose level”, the DLT ([1]; 100 mg once daily, patient: colon cancer) is reported as “None” and the DLT ([1]; 100 mg once daily, patient: rectal cancer) is reported as “None”. For the same molecule, the DLT ([1]; 125 mg once daily, patient: esophageal cancer) was “None”, the DLT ([1]; 125 mg once daily, patient: fibroma) was “None” and the DLT ([1]; 125 mg once daily, patient: rectal cancer) was “None”. For the same molecule, the “Any AE (treatment-related), All grades” value ([2]; 100 mg once daily) was 6 (100) n (%), the “Any AE (treatment-related), Grade 3/4” value ([2]; 100 mg once daily) was 4 (67) n (%) and the “Blood creatinine increased (treatment-related AE), All grades” value ([2]; 100 mg once daily) was 2 (33) n (%). For the same molecule, the “Blood creatinine increased (treatment-related AE), Grade 3/4” value ([2]; 100 mg once daily) was 0 (0) n (%), the “Diarrhea (treatment-related AE), All grades” value ([2]; 100 mg once daily) was 0 (0) n (%) and the “Diarrhea (treatment-related AE), Grade 3/4” value ([2]; 100 mg once daily) was 0 (0) n (%). For the same molecule, the “Fatigue (treatment-related AE), All grades” value ([2]; 100 mg once daily) was 0 (0) n (%), the “Fatigue (treatment-related AE), Grade 3/4” value ([2]; 100 mg once daily) was 0 (0) n (%) and the “Lymphocytes decreased (treatment-related AE), All grades” value ([2]; 100 mg once daily) was 1 (17) n (%). The “Lymphocytes decreased (treatment-related AE), Grade 3/4” value ([2]; 100 mg once daily) was 1 (17) n (%), the “Neutropenia (treatment-related), all grades” value ([2]; 100 mg once daily) was 83% and the “Neutropenia (treatment-related), grade 3/4” value ([2]; 100 mg once daily) was 67%. For the same molecule, the “Neutrophils decreased (treatment-related AE), All grades” value ([2]; 100 mg once daily) was 5 (83) n (%), the “Neutrophils decreased (treatment-related AE), Grade 3/4” value ([2]; 100 mg once daily) was 4 (67) n (%) and the “Platelets decreased (treatment-related AE), All grades” value ([2]; 100 mg once daily) was 1 (17) n (%). For the same molecule, the “Platelets decreased (treatment-related AE), Grade 3/4” value ([2]; 100 mg once daily) was 0 (0) n (%), the “WBCs decreased (treatment-related AE), All grades” value ([2]; 100 mg once daily) was 4 (67) n (%) and the “WBCs decreased (treatment-related AE), Grade 3/4” value ([2]; 100 mg once daily) was 2 (33) n (%). For the same molecule, the “Any AE (treatment-related), All grades” value ([2]; 125 mg once daily) was 5 (83) n (%), the “Any AE (treatment-related), Grade 3/4” value ([2]; 125 mg once daily) was 4 (67) n (%) and the “Blood creatinine increased (treatment-related AE), All grades” value ([2]; 125 mg once daily) was 0 (0) n (%). The “Blood creatinine increased (treatment-related AE), Grade 3/4” value ([2]; 125 mg once daily) was 0 (0) n (%), the “Diarrhea (treatment-related AE), All grades” value ([2]; 125 mg once daily) was 2 (33) n (%) and the “Diarrhea (treatment-related AE), Grade 3/4” value ([2]; 125 mg once daily) was 0 (0) n (%). The “Fatigue (treatment-related AE), All grades” value ([2]; 125 mg once daily) was 2 (33) n (%), the “Fatigue (treatment-related AE), Grade 3/4” value ([2]; 125 mg once daily) was 0 (0) n (%) and the “Lymphocytes decreased (treatment-related AE), All grades” value ([2]; 125 mg once daily) was 3 (50) n (%). For the same molecule, the “Lymphocytes decreased (treatment-related AE), Grade 3/4” value ([2]; 125 mg once daily) was 2 (33) n (%), the “Neutropenia (treatment-related), all grades” value ([2]; 125 mg once daily) was 67% and the “Neutropenia (treatment-related), grade 3/4” value ([2]; 125 mg once daily) was 33%. For the same molecule, the “Neutrophils decreased (treatment-related AE), All grades” value ([2]; 125 mg once daily) was 4 (67) n (%), the “Neutrophils decreased (treatment-related AE), Grade 3/4” value ([2]; 125 mg once daily) was 2 (33) n (%) and the “Platelets decreased (treatment-related AE), All grades” value ([2]; 125 mg once daily) was 2 (33) n (%). For the same molecule, the “Platelets decreased (treatment-related AE), Grade 3/4” value ([2]; 125 mg once daily) was 1 (17) n (%), the “WBCs decreased (treatment-related AE), All grades” value ([2]; 125 mg once daily) was 5 (83) n (%) and the “WBCs decreased (treatment-related AE), Grade 3/4” value ([2]; 125 mg once daily) was 2 (33) n (%). The “Grade ≥3 treatment-related non-hematologic AEs” value ([2]; all cohorts (100 mg, 125 mg, 125 mg + letrozole)) was “No grade ≥3 treatment‐related non‐hematologic AEs were observed”, the Deaths ([2]; whole study, 18 patients) was “No deaths” and the “Dose proportionality of exposure” value ([3]; 125 mg vs 100 mg, part 1) was “higher than dose‐proportional exposure”. The Tmax ([3]; 125 mg, single dose, n = 6, median (range)) was 4.0 (3.9–8.0) h, the AUC(0-inf) ([3]; human, plasma, oral, 100 mg) was 1.04 µg·h/mL and the Cmax ([3]; human, plasma, oral, 100 mg) was 0.0414 µg/mL. It also gave a Tmax ([3]; human, plasma, oral, 100 mg) of 5 h, an AUC(0-t) ([3]; human, plasma, oral, 100 mg, AUClast, single dose, n = 6) of 0.972 µg·h/mL and an AUC(0-t) ([3]; human, plasma, oral, 100 mg, AUCτ (= AUC0–24), 100 mg once daily, multiple doses (day 8 of cycle 1), n = 6) of 1.28 µg·h/mL. It also gave an AUC(0-t) ([3]; human, plasma, oral, 100 mg, AUCτ (= AUC0–24), single dose, n = 6) of 0.547 µg·h/mL, a half-life ([3]; human, plasma, oral, 100 mg, 100 mg once daily, multiple doses (day 8 of cycle 1), n = 6) of 23.8 ± 6.8 h and a half-life ([3]; human, plasma, oral, 100 mg, single dose, n = 6) of 25.7 ± 5.3 h. For the same molecule, the AUC(0-inf) ([3]; human, plasma, oral, 125 mg) was 2.48 µg·h/mL, the Tmax ([3]; human, plasma, oral, 125 mg) was 4 to 5 h and the concentration at 4 h ([3]; human, plasma, oral, 125 mg) was 0.172 µg/mL. It also gave an AUC(0-t) ([3]; human, plasma, oral, 125 mg, AUClast, single dose, n = 6) of 2.4 µg·h/mL, an AUC(0-t) ([3]; human, plasma, oral, 125 mg, AUCτ (= AUC0–24), 125 mg once daily, multiple doses (day 8 of cycle 1), n = 6) of 2.84 µg·h/mL and an AUC(0-t) ([3]; human, plasma, oral, 125 mg, AUCτ (= AUC0–24), single dose, n = 6) of 1.32 µg·h/mL. For the same molecule, the half-life ([3]; human, plasma, oral, 125 mg, 125 mg once daily, multiple doses (day 8 of cycle 1), n = 6) was 23.2 ± 7.7 h, the half-life ([3]; human, plasma, oral, 125 mg, single dose, n = 6) was 23.9 ± 2.7 h and the “Plasma palbociclib concentration, Predose [Ctrough], geometric mean” value ([3]; palbociclib 125 mg alone, day 8 of part 1) was 0.0728 µg/mL. The “Plasma palbociclib concentration, Predose [Ctrough], geometric mean” value [4] was 0.0885 µg/mL, the “Patients with stable disease” value (advanced solid tumors; 100 mg, part 1, n = 6) was “three of six patients” and the Best response (advanced solid tumors; [7]) was “Indeterminate”. The “Progression‐free survival” value (advanced solid tumors; [7]) was 29 days, the “Progression‐free survival” value (advanced solid tumors; 100 mg, part 1, patient: breast cancer (second listed)) was 75 days and the “Progression‐free survival” value (advanced solid tumors; 100 mg, part 1, patient: colon cancer) was 29 days. The “Progression‐free survival” value (advanced solid tumors; 100 mg, part 1, patient: medullary thyroid cancer) was 57 days, the “Progression‐free survival” value (advanced solid tumors; 100 mg, part 1, patient: ovarian cancer) was 121 days and the “Progression‐free survival” value (advanced solid tumors; 100 mg, part 1, patient: rectal cancer) was 223 days. For the same molecule, the “Patients with stable disease” value (advanced solid tumors; 125 mg, part 1, n = 6) was “one of six patients”, the “Progression‐free survival” value (advanced solid tumors; 125 mg, part 1, patient: acinar cell carcinoma of pancreas) was 29 days and the “Progression‐free survival” value (advanced solid tumors; 125 mg, part 1, patient: breast cancer) was 57 days. For the same molecule, the “Progression‐free survival” value (advanced solid tumors; 125 mg, part 1, patient: esophageal carcinoma) was 280 days, the “Progression‐free survival” value (advanced solid tumors; 125 mg, part 1, patient: fibroma) was 28 days and the “Progression‐free survival” value (advanced solid tumors; 125 mg, part 1, patient: inflammatory myofibroblastic tumor) was 28 days. The “Progression‐free survival” value (advanced solid tumors; 125 mg, part 1, patient: rectal cancer) was 32 days, the “DCR (objective response or stable disease ≥24 weeks)” value (advanced solid tumors; 100 or 125 mg, part 1) was 17% and the “Objective responses (CR or PR)” value (advanced solid tumors; 100 or 125 mg, part 1) was “not reported”. For the same molecule, the “Patients with extended stable disease (≥24 weeks)” value (advanced solid tumors; part 1, 100- or 125-mg dose (rectal and esophageal cancer)) was “two patients”, the “Patients with stable disease” value (advanced solid tumors; part 1 overall (100 and 125 mg, n = 12)) was “Four patients had stable disease” and the “Antitumor activity when combined with tamoxifen” value [5] was “synergistic antitumor activity”. The Retinoblastoma protein hyperphosphorylation [5] was “inhibition of retinoblastoma protein hyperphosphorylation” and the Tumor cell growth [5] was “arrest tumor cell growth”.
With N#Cc1ccc(C(c2ccc(C#N)cc2)n2cncn2)cc1 [letrozole] the “Predose plasma letrozole concentration, geometric mean Ctrough” value ([6]; letrozole 2.5 mg alone, part 2, day 1 of cycles 2 and 3) was 146 ^† ng/mL and the “Predose plasma letrozole concentration, geometric mean Ctrough” value ([6]; palbociclib 125 mg + letrozole 2.5 mg, part 2, day 15 of cycles 1 and 2) was 131 ^‡ ng/mL.
